Measured values published in patent US20150183890A1, “Methods for Formation of Cyclodextrin-Ursolic Acid Inclusion Complex” (Campbell Industries, priority 2013, published 2015).

Experiment: Aqueous solubility of cyclodextrin-ursolic acid inclusion complex versus ursolic acid alone
Type: physicochemical
Details: aqueous solutions; CDUA compared with UA alone

SMILES: C[C@H]1[C@H](C)CC[C@]2(C(=O)O)CC[C@]3(C)C(=CC[C@@H]4[C@@]5(C)CC[C@H](O)C(C)(C)[C@@H]5CC[C@]43C)[C@H]12 [UA, 3-β-hydroxy-urs-12-en-28-oic acid]
- aqueous solubility (in words): largely insoluble
